Results from paper PMC7608132 (Acta Pharmacologica Sinica, 2020).
Where two headings read alike, the source gives them in different places.

Key:
[1] = rifampin; cited from earlier work
[2] = HLMs, 3 µM alflutinib, selective inhibitor at the concentration of b13

Nn1nnc2ccccc21 [ABT, 1-aminobenzotriazole]
Suppression of the production of AST5902 (CYP enzymes in HLMs): 98%

O=c1c(O)c(-c2ccc(O)c(O)c2)oc2cc(O)cc(O)c12 [Quercetin, quercetin]
Suppression of the production of AST5902 (CYP enzymes in HLMs; [2]): 68%

CO[C@H]1/C=C/O[C@@]2(C)Oc3c(C)c(O)c4c(O)c(c(/C=N/N5CCN(C)CC5)c(O)c4c3C2=O)NC(=O)/C(C)=C\C=C\[C@H](C)[C@H](O)[C@@H](C)[C@@H](O)[C@@H](C)[C@H](OC(C)=O)[C@@H]1C [Rifampin]
In vivo concentrations [1]: 10 to 18 µM

Nc1ccc(S(=O)(=O)Nc2ccnn2-c2ccccc2)cc1 [Sulfaphenazole, sulfaphenazole]
Suppression of the production of AST5902 (CYP enzymes in HLMs; [2]): 45%

Cc1ncsc1CCCl [chlormethiazole]
Effect on the formation of alflutinib metabolites (CYP enzymes in HLMs; HLMs, α-naphthoflavone 2 µM, chlormethiazole 24 µM): no significant effects

O=c1cc(-c2ccccc2)oc2c1ccc1ccccc12 [α-Naphthoflavone, α-naphthoflavone]
Effect on the formation of alflutinib metabolites (CYP enzymes in HLMs): no significant effects
